Assay results: US20100041089A1, “IMPROVED METHOD FOR DETECTING CHEMICAL […]” (priority 2006, published 2010)

Test system: yeast genes (expressed mRNA)
Test: DNA chip measurement of expressed mRNA of yeast genes after culture with a toxic chemical substance
Format: cell-based, Saccharomyces cerevisiae S288C
Settings: for level of expressed mRNA in the presence of chemical substance / level in the absence of chemical substance: cultured two hours with the chemical substance; for The level of expressed mRNA in the presence of chemical substance/The level of expressed mRNA in the absence of chemical substance: cultured two hours with substance
Method in brief: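 S. cerevisiae S288C grown at 25 °C in YPD, exposed in log phase for 2 h to a toxicant at growth-inhibiting, non-lethal concentration. Cy3/Cy5-labelled cDNA from poly(A) mRNA hybridized to whole-genome chip at 65 °C >12 h. Ratio to untreated control, ≥2 significant.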

Cl[C@H]1[C@H](Cl)[C@@H](Cl)[C@@H](Cl)[C@H](Cl)[C@H]1Cl [(7), γ-Hexachlorocyclohexane]
level of expressed mRNA in the presence of chemical substance / level in the absence of chemical substance (yeast gene YDR133C): 0.2 | level of expressed mRNA in the presence of chemical substance / level in the absence of chemical substance (yeast gene YDR250C): 1.0 | level of expressed mRNA in the presence of chemical substance / level in the absence of chemical substance (yeast gene YDR278C): 0.7 | level of expressed mRNA in the presence of chemical substance / level in the absence of chemical substance (yeast gene YDR281C): 0.6 | The level of expressed mRNA in the presence of chemical substance/The level of expressed mRNA in the absence of chemical substance (yeast gene YDR330W): 1.3 | level of expressed mRNA in the presence of chemical substance / level in the absence of chemical substance (yeast gene YDR366C): 1.5 | The level of expressed mRNA in the presence of chemical substance/The level of expressed mRNA in the absence of chemical substance (yeast gene YDR411C): 2.0 | The level of expressed mRNA in the presence of chemical substance/The level of expressed mRNA in the absence of chemical substance (yeast gene YDR511W): 1.5 | The level of expressed mRNA in the presence of chemical substance/The level of expressed mRNA in the absence of chemical substance (yeast gene YDR545W): 1.2 | The level of expressed mRNA in the presence of chemical substance/The level of expressed mRNA in the absence of chemical substance (yeast gene YEL001C): 1.1 | The level of expressed mRNA in the presence of chemical substance/The level of expressed mRNA in the absence of chemical substance (yeast gene YER004W): 1.4 | The level of expressed mRNA in the presence of chemical substance/The level of expressed mRNA in the absence of chemical substance (yeast gene YER035W): 1.9 | The level of expressed mRNA in the presence of chemical substance/The level of expressed mRNA in the absence of chemical substance (yeast gene YER079W): 1.9 | The level of expressed mRNA in the presence of chemical substance/The level of expressed mRNA in the absence of chemical substance (yeast gene YER106W): 1.0 | The level of expressed mRNA in the presence of chemical substance/The level of expressed mRNA in the absence of chemical substance (yeast gene YER158C): 1.2 | The level of expressed mRNA in the presence of chemical substance/The level of expressed mRNA in the absence of chemical substance (yeast gene YER163C): 1.5 | The level of expressed mRNA in the presence of chemical substance/The level of expressed mRNA in the absence of chemical substance (yeast gene YER175C): 2.3 | The level of expressed mRNA in the presence of chemical substance/The level of expressed mRNA in the absence of chemical substance (yeast gene YFL006W): 1.0 | The level of expressed mRNA in the presence of chemical substance/The level of expressed mRNA in the absence of chemical substance (yeast gene YFL010C): 1.5 | The level of expressed mRNA in the presence of chemical substance/The level of expressed mRNA in the absence of chemical substance (yeast gene YFL024C): 3.3 | The level of expressed mRNA in the presence of chemical substance/The level of expressed mRNA in the absence of chemical substance (yeast gene YFL032W): 1.1 | level of expressed mRNA in the presence of chemical substance / level in the absence of chemical substance (yeast gene YFR026C): 1.3 | The level of expressed mRNA in the presence of chemical substance/The level of expressed mRNA in the absence of chemical substance (yeast gene YGL037C): 2.9 | The level of expressed mRNA in the presence of chemical substance/The level of expressed mRNA in the absence of chemical substance (yeast gene YGL047W): 1.7 | The level of expressed mRNA in the presence of chemical substance/The level of expressed mRNA in the absence of chemical substance (yeast gene YGL053W): 3.7 | level of expressed mRNA in the presence of chemical substance / level in the absence of chemical substance (yeast gene YGL088W): 1.0 | The level of expressed mRNA in the presence of chemical substance/The level of expressed mRNA in the absence of chemical substance (yeast gene YGL121C): 4.7 | The level of expressed mRNA in the presence of chemical substance/The level of expressed mRNA in the absence of chemical substance (yeast gene YGL199C): 1.3 | level of expressed mRNA in the presence of chemical substance / level in the absence of chemical substance (yeast gene YGR038W): 1.1 | The level of expressed mRNA in the presence of chemical substance/The level of expressed mRNA in the absence of chemical substance (yeast gene YGR101W): 1.5 | The level of expressed mRNA in the presence of chemical substance/The level of expressed mRNA in the absence of chemical substance (yeast gene YGR110W): 1.7 | The level of expressed mRNA in the presence of chemical substance/The level of expressed mRNA in the absence of chemical substance (yeast gene YGR130C): 1.3 | level of expressed mRNA in the presence of chemical substance / level in the absence of chemical substance (yeast gene YGR139W): 0.8 | The level of expressed mRNA in the presence of chemical substance/The level of expressed mRNA in the absence of chemical substance (yeast gene YGR154C): 2.0 | The level of expressed mRNA in the presence of chemical substance/The level of expressed mRNA in the absence of chemical substance (yeast gene YGR221C): 1.2 | level of expressed mRNA in the presence of chemical substance / level in the absence of chemical substance (yeast gene YGR243W): 1.9 | level of expressed mRNA in the presence of chemical substance / level in the absence of chemical substance (yeast gene YGR293C): 1.3 | level of expressed mRNA in the presence of chemical substance / level in the absence of chemical substance (yeast gene YHL006C): 1.2 | level of expressed mRNA in the presence of chemical substance / level in the absence of chemical substance (yeast gene YHR095W): 0.8 | level of expressed mRNA in the presence of chemical substance / level in the absence of chemical substance (yeast gene YHR105W): 0.9 | The level of expressed mRNA in the presence of chemical substance/The level of expressed mRNA in the absence of chemical substance (yeast gene YHR138C): 3.0 | level of expressed mRNA in the presence of chemical substance / level in the absence of chemical substance (yeast gene YHR181W): 0.8 | The level of expressed mRNA in the presence of chemical substance/The level of expressed mRNA in the absence of chemical substance (yeast gene YHR199C): 1.1 | The level of expressed mRNA in the presence of chemical substance/The level of expressed mRNA in the absence of chemical substance (yeast gene YIL023C): 1.2 | The level of expressed mRNA in the presence of chemical substance/The level of expressed mRNA in the absence of chemical substance (yeast gene YIL041W): 0.8 | The level of expressed mRNA in the presence of chemical substance/The level of expressed mRNA in the absence of chemical substance (yeast gene YIL087C): 1.8 | level of expressed mRNA in the presence of chemical substance / level in the absence of chemical substance (yeast gene YIL127C): 0.6 | level of expressed mRNA in the presence of chemical substance / level in the absence of chemical substance (yeast gene YJL017W): 0.2 | level of expressed mRNA in the presence of chemical substance / level in the absence of chemical substance (yeast gene YJL037W): 1.2 | The level of expressed mRNA in the presence of chemical substance/The level of expressed mRNA in the absence of chemical substance (yeast gene YJL057C): 2.7 | The level of expressed mRNA in the presence of chemical substance/The level of expressed mRNA in the absence of chemical substance (yeast gene YJL066C): 1.6 | The level of expressed mRNA in the presence of chemical substance/The level of expressed mRNA in the absence of chemical substance (yeast gene YJL082W): 0.4 | level of expressed mRNA in the presence of chemical substance / level in the absence of chemical substance (yeast gene YJL097W): 1.0
